Measurements from ChEMBL document CHEMBL1201862, “PubChem BioAssay data set” (2004).
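The compound was tested at five concentrations on cells cultured in 96-well plates, with a 48-hour exposure period. GI50: concentration for 50% inhibition of growth.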 Activity calls are given as the source filed them. Rule as the data show it: active = GI50 up to about 1.1 µM and inactive = higher.

How the values were obtained:
Assay in all cases: growth of human tumour cells (NCI), 48 h
ACHN = test system: ACHN
CCRF-CEM = test system: CCRF-CEM
COLO 205 = test system: COLO 205
HCC 2998 = test system: HCC 2998
HT-29 = test system: HT-29
IGROV-1 = test system: IGROV-1
K562 = test system: K562
LOX IMVI = test system: LOX IMVI
MDA-N = test system: MDA-N
OVCAR-4 = test system: OVCAR-4
OVCAR-5 = test system: OVCAR-5
OVCAR-8 = test system: OVCAR-8
RPMI-8226 = test system: RPMI-8226
SF-539 = test system: SF-539
SK-MEL-28 = test system: SK-MEL-28
SK-OV-3 = test system: SK-OV-3
SNB-19 = test system: SNB-19
SR = test system: SR
RXF 393 = test system: RXF 393
T47D = test system: T47D

Row | SMILES | GI50 (ACHN) | GI50 (CCRF-CEM) | GI50 (COLO 205) | GI50 (HCC 2998) | GI50 (HT-29) | GI50 (IGROV-1) | GI50 (K562) | GI50 (LOX IMVI) | GI50 (MDA-N) | GI50 (OVCAR-4) | GI50 (OVCAR-5) | GI50 (OVCAR-8) | GI50 (RPMI-8226) | GI50 (SF-539) | GI50 (SK-MEL-28) | GI50 (SK-OV-3) | GI50 (SNB-19) | GI50 (SR) | GI50 (RXF 393) | GI50 (T47D)
1 | Cc1ccc2nc(CN3CCCC(O)C3)cc(=O)n2c1 (stereo not given) | > 100 µM (inactive) | > 100 µM (inactive) | > 100 µM (inactive) | > 100 µM (inactive) | > 100 µM (inactive) | > 100 µM (inactive) | > 100 µM (inactive) | > 100 µM (inactive) | > 100 µM (inactive) | > 100 µM (inactive) | > 100 µM (inactive) | > 100 µM (inactive) | > 100 µM (inactive) | > 100 µM (inactive) | > 100 µM (inactive) | > 100 µM (inactive) | > 100 µM (inactive) | > 100 µM (inactive) | – | –
2 | Cc1nc2cn3c(c2c(=O)[nH]1)CCCCC3 | > 100 µM (inactive) | > 100 µM (inactive) | > 100 µM (inactive) | > 100 µM (inactive) | > 100 µM (inactive) | > 100 µM (inactive) | > 100 µM (inactive) | > 100 µM (inactive) | – | > 100 µM (inactive) | – | > 100 µM (inactive) | > 100 µM (inactive) | > 100 µM (inactive) | > 100 µM (inactive) | > 100 µM (inactive) | > 100 µM (inactive) | > 100 µM (inactive) | > 100 µM (inactive) | > 100 µM (inactive)
3 | COc1cc2c(/C=C3/C(=O)Nc4cc(C)c(O)cc43)c(Cl)[nH]c2cc1C | 4.37 µM (inactive) | 0.552 µM (active) | 2.03 µM (inactive) | – | 2.33 µM (inactive) | 4.06 µM (inactive) | 0.815 µM (active) | 5.61 µM (inactive) | – | 4.31 µM (inactive) | 4.33 µM (inactive) | 3.69 µM (inactive) | 1.75 µM (inactive) | 2.2 µM (inactive) | 4.91 µM (inactive) | 2.1 µM (inactive) | 2.82 µM (inactive) | 0.376 µM (active) | 1.66 µM (inactive) | 3.16 µM (inactive)
4 | NC(=O)N=C(N(Cc1ccccc1)Cc1ccccc1)N(Cc1ccccc1)Cc1ccccc1 | > 24.4 µM (inactive) | > 100 µM (inactive) | – | 5.22 µM (inactive) | 4 µM (inactive) | 8.97 µM (inactive) | > 100 µM (inactive) | 5.89 µM (inactive) | – | 6.22 µM (inactive) | > 100 µM (inactive) | 14.4 µM (inactive) | 8.02 µM (inactive) | 28.1 µM (inactive) | > 100 µM (inactive) | > 58.7 µM (inactive) | > 43.9 µM (inactive) | > 100 µM (inactive) | > 100 µM (inactive) | > 100 µM (inactive)
5 | O=C1Nc2c(Cl)cc(Cl)cc2C1=O | 34.2 µM (inactive) | 21.3 µM (inactive) | 23.5 µM (inactive) | 34.7 µM (inactive) | 27.4 µM (inactive) | 17.7 µM (inactive) | 29.2 µM (inactive) | 14.4 µM (inactive) | 8.99 µM (inactive) | 17.8 µM (inactive) | 20.7 µM (inactive) | 16.9 µM (inactive) | – | 17.2 µM (inactive) | 17.7 µM (inactive) | 77.4 µM (inactive) | > 100 µM (inactive) | 12.2 µM (inactive) | 13.6 µM (inactive) | –
